From patent US20250304620A1, “ANTIMICROBIAL PEPTIDE AND APPLICATION THEREOF” (priority 2023, published 2025)
In brackets after ≈: the same amount, converted by molar mass. Non-standard residues stand in square brackets, D forms with d. Residues, ends and D or L forms follow the SMILES beside them. d2Nal = N[C@H](Cc1ccc2ccccc2c1)C(=O)O

Assays:
[1] = test system: Staphylococcus aureus (NRS 384); test: microbe, parasite or virus in culture; assay type: cell-based; conditions: NRS 384
Method in brief: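 MICs were read against S. aureus strain NRS 384 using twofold serial dilution by CLSI microdilution rules. Levofloxacin and Cbf-K16 were the reference controls, and the test was repeated 5 times in parallel.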

[2] = test system: Bacillus subtilis ATCC 6633; assay type: cell-based
Method in brief: (§1)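 Read-out is MIC, from a CLSI-conformant twofold microdilution series, done in quintuplicate in parallel.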

[3] = test system: Candida albicans ATCC MYA-2876; assay type: cell-based
Method in brief: as §1

[4] = test system: Candida glabrata ATCC 15126; assay type: cell-based
Method in brief: as §1

[5] = test system: Candida krusei ATCC 6258; assay type: cell-based
Method in brief: as §1

[6] = test system: Candida tropicalis ATCC 750; assay type: cell-based
Method in brief: as §1

[7] = test system: Candida utilis ATCC 9950; assay type: cell-based
Method in brief: as §1

[8] = test system: Corynebacterium ATCC 7715; assay type: cell-based
Method in brief: as §1

[9] = test system: Enterococcus ATCC 29212; assay type: cell-based
Method in brief: as §1

[10] = test system: Escherichia coli ATCC 25922; assay type: cell-based
Method in brief: as §1

[11] = test system: Klebsiella pneumoniae ATCC 700603; assay type: cell-based
Method in brief: as §1

[12] = test system: Pseudomonas aeruginosa ATCC 27853; assay type: cell-based
Method in brief: as §1

[13] = test system: Salmonella typhimurium ATCC 14028; assay type: cell-based
Method in brief: as §1

[14] = test system: Serratia marcescens ATCC 29021; assay type: cell-based
Method in brief: as §1

[15] = test system: Staphylococcus aureus ATCC 25923; assay type: cell-based
Method in brief: as §1

[16] = test system: Trichophyton ATCC MYA-4438; assay type: cell-based
Method in brief: as §1

[17] = test system: Shigella flexneri ATCC 12022; test: MIC against clinically common bacterial strain; assay type: cell-based
Method in brief: as §1

[18] = test system: Methicillin-resistant Staphylococcus aureus (MRSA); assay type: cell-based; conditions: Methicillin-resistant
Method in brief: (§2)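 Broth serial twofold dilution per CLSI standards, run 5 times in parallel, gave MIC values for the peptides against clinically common resistant strains.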

[19] = test system: carbapenem-resistant Escherichia coli (CREC); assay type: cell-based; conditions: carbapenem-resistant (CREC)
Method in brief: as §2

[20] = test system: carbapenem-resistant Klebsiella pneumoniae (CRKP); assay type: cell-based; conditions: carbapenem-resistant (CRKP)
Method in brief: as §2

[21] = test system: carbapenem-resistant Pseudomonas aeruginosa (CRPA); assay type: cell-based; conditions: carbapenem-resistant (CRPA)
Method in brief: as §2

[22] = test system: vancomycin-resistant Enterococcus (VRE); assay type: cell-based
Method in brief: as §2

[23] = test system: Staphylococcus aureus (NRS 384); conditions: NRS 384, 3 h
Protocol: Trypsin (250 U/mg, pH=8.0) and AMPs (LV-1 to LV-30) were mixed in a ratio of 1:10 (w/w) and added to a reaction buffer (0.2 M sodium phosphate, 1 mM CaCl2), pH 7.5), and then incubated at 37° C. for 3 h.

[24] = Serum stability assay (residual level by RP-HPLC); conditions: human

Q: What does the source list for `CC(=O)N[C@H](CCCNC(=N)N)C(=O)N[C@H](CCCCN)C(=O)N[C@@H](C(=O)N[C@@H](C(=O)N[C@H](Cc1ccc2ccccc2c1)C(=O)N[C@H](CCCNC(=N)N)C(=O)N[C@@H](C(=O)N[C@H](CCCCN)C(=O)N[C@H](Cc1ccc2ccccc2c1)C(=O)N[C@H](CCCNC(=N)N)C(=O)N[C@H](CCCCN)C(N)=O)C(C)C)C(C)C)C(C)C` [LV-16] (Ac-[dR][dK][dV][dV][d2Nal][dR][dV][dK][d2Nal][dR][dK]-NH2)?
A: MIC against Staphylococcus aureus (NRS 384) [1]: 1 µg/mL (≈ 0.623 µM); MIC Bacillus subtilis ATCC 6633 [2]: 4 µg/mL (≈ 2.49 µM); MIC Candida albicans ATCC MYA-2876 [3]: 8 µg/mL (≈ 4.99 µM); MIC Candida glabrata ATCC 15126 [4]: 16 µg/mL (≈ 9.97 µM); MIC Candida krusei ATCC 6258 [5]: 4 µg/mL (≈ 2.49 µM); MIC Candida tropicalis ATCC 750 [6]: 4 µg/mL (≈ 2.49 µM); MIC Candida utilis ATCC 9950 [7]: 8 µg/mL (≈ 4.99 µM); MIC Corynebacterium ATCC 7715 [8]: 2 µg/mL (≈ 1.25 µM); MIC Enterococcus ATCC 29212 [9]: 2 µg/mL (≈ 1.25 µM); MIC Escherichia coli ATCC 25922 [10]: 1 µg/mL (≈ 0.623 µM); MIC Klebsiella pneumoniae ATCC 700603 [11]: 2 µg/mL (≈ 1.25 µM); MIC Pseudomonas aeruginosa ATCC 27853 [12]: 4 µg/mL (≈ 2.49 µM); MIC Salmonella typhimurium ATCC 14028 [13]: 2 µg/mL (≈ 1.25 µM); MIC Serratia marcescens ATCC 29021 [14]: 4 µg/mL (≈ 2.49 µM); MIC Staphylococcus aureus ATCC 25923 [15]: 1 µg/mL (≈ 0.623 µM); MIC Trichophyton ATCC MYA-4438 [16]: 8 µg/mL (≈ 4.99 µM); MIC Shigella flexneri ATCC 12022 [17]: 2 µg/mL (≈ 1.25 µM); MIC MRSA [18]: 4 µg/mL (≈ 2.49 µM); MIC CREC [19]: 8 µg/mL (≈ 4.99 µM); MIC CRKP [20]: 2 µg/mL (≈ 1.25 µM); MIC CRPA [21]: 8 µg/mL (≈ 4.99 µM); MIC VRE [22]: 2 µg/mL (≈ 1.25 µM); Trypsin MIC [23]: 1 µg/mL; remaining at 12 h, 0.91 mg/mL [24]: 98.4%

Q: With `CC(=O)N[C@H](CCCCN)C(=O)N[C@H](CCCCN)C(=O)N[C@H](CC(C)C)C(=O)N[C@H](CC(C)C)C(=O)N[C@H](Cc1ccc2ccccc2c1)C(=O)N[C@H](CCCCN)C(=O)N[C@H](CC(C)C)C(=O)N[C@H](CCCCN)C(=O)N[C@H](Cc1ccc2ccccc2c1)C(=O)N[C@H](CCCCN)C(=O)N[C@H](CCCCN)C(N)=O` [LV-17] (Ac-[dK][dK][dL][dL][d2Nal][dK][dL][dK][d2Nal][dK][dK]-NH2) as the compound, how does the “MIC against Staphylococcus aureus (NRS 384)” value [1] read?
A: The value was 1 µg/mL (≈ 0.64 µM).

Q: What about the “MIC Bacillus subtilis ATCC 6633” value [2] of the same compound?
A: Its value is 4 µg/mL (≈ 2.56 µM).

Q: And the “MIC Candida albicans ATCC MYA-2876” value [3]?
A: The value was 8 µg/mL (≈ 5.12 µM).

Q: And the “MIC Candida glabrata ATCC 15126” value [4]?
A: The value was 8 µg/mL (≈ 5.12 µM).

Q: What about the “MIC Candida krusei ATCC 6258” value [5] of the same compound?
A: Its value is 8 µg/mL (≈ 5.12 µM).

Q: What about the “MIC Candida tropicalis ATCC 750” value [6] of the same compound?
A: Its value is 8 µg/mL (≈ 5.12 µM).

Q: And the “MIC Candida utilis ATCC 9950” value [7]?
A: Its value is 16 µg/mL (≈ 10.2 µM).

Q: And the “MIC Corynebacterium ATCC 7715” value [8]?
A: The value was 2 µg/mL (≈ 1.28 µM).

Q: What about the “MIC Enterococcus ATCC 29212” value [9] of the same compound?
A: The value was 2 µg/mL (≈ 1.28 µM).

Q: What about the “MIC Escherichia coli ATCC 25922” value [10] of the same compound?
A: The value was 1 µg/mL (≈ 0.64 µM).

Q: What about the “MIC Klebsiella pneumoniae ATCC 700603” value [11] of the same compound?
A: Its value is 4 µg/mL (≈ 2.56 µM).

Q: And the “MIC Pseudomonas aeruginosa ATCC 27853” value [12]?
A: The value was 1 µg/mL (≈ 0.64 µM).

Q: What about the “MIC Salmonella typhimurium ATCC 14028” value [13] of the same compound?
A: The value was 4 µg/mL (≈ 2.56 µM).

Q: And the “MIC Serratia marcescens ATCC 29021” value [14]?
A: The value was 2 µg/mL (≈ 1.28 µM).

Q: And the “MIC Staphylococcus aureus ATCC 25923” value [15]?
A: The value was 1 µg/mL (≈ 0.64 µM).

Q: What about the “MIC Trichophyton ATCC MYA-4438” value [16] of the same compound?
A: Its value is 8 µg/mL (≈ 5.12 µM).

Q: What about the “MIC Shigella flexneri ATCC 12022” value [17] of the same compound?
A: The value was 4 µg/mL (≈ 2.56 µM).

Q: And the “MIC MRSA” value [18]?
A: Its value is 8 µg/mL (≈ 5.12 µM).

Q: What about the “MIC CREC” value [19] of the same compound?
A: Its value is 4 µg/mL (≈ 2.56 µM).

Q: What about the “MIC CRKP” value [20] of the same compound?
A: The value was 4 µg/mL (≈ 2.56 µM).

Q: And the “MIC CRPA” value [21]?
A: Its value is 4 µg/mL (≈ 2.56 µM).

Q: And the “MIC VRE” value [22]?
A: The value was 8 µg/mL (≈ 5.12 µM).

Q: What about the “Trypsin MIC” value [23] of the same compound?
A: Its value is 1 µg/mL.

Q: What about the remaining at 12 h, 0.91 mg/mL [24] of the same compound?
A: Its remaining at 12 h, 0.91 mg/mL is 97.2%.
